# Measurements taken from patent US8809386B2, “Use of dynamin ring stabilizers” (Children's Medical Research Institute, priority 2009, dated 2014).
# What was measured:
# F-actin = assay: Actin co-sedimentation assay, dynamin-F-actin binding (Scatchard plot); details: 5 μM F-actin, centrifugation at 100,000×g, FIG. 14
# Protocol: Increasing concentrations of dynamin (free) were added to 5 μM of F-actin. After centrifugation at 100,000×g proteins were separated on SDS-PAGE and bands were analyzed using densitometry.
# To determine whether dynamin affects the actin cytoskeleton, the question of whether dynamin might directly bind filamentous actin (F-actin) was tested. In particular, an actin co-sedimentation assay was performed in which F-actin sediments under high-speed centrifugation. If dynamin interacts with F-actin it would be expected to co-sediment, and thus be present in the pellet fraction. In the presence of F-actin, but not in its absence, the majority of dynamin was found in the pellet (FIG. 12, lanes 2 and 14). […] The Kd of dynamin for actin was approximately 0.4 μM, which is similar to the affinities of other actin binding proteins such as α-actinin 4 for actin (Weins et al. 2005).
# Next, the actin binding site was mapped to a region between amino acids 399 and 444 amino acids of dynamin II (dyn2) (FIG. 13). As predicted for an actin binding domain (Van et al. 1996), this region contains several positively charged amino acids conserved in all dynamin gene products from yeast to mammals. It is also alternatively spliced within different mammalian dynamin isoforms (called variant a and b in dynamins I and II) (see FIG. 13, SEQ ID No. 1-4). Site-directed mutagenesis was performed on conserved, charged residues within this actin binding domain to generate the putative ‘loss of function’ mutants, dynK/E (SEQ ID No. 9) and dynK/A (SEQ ID No. 10), and a putative ‘gain of function’ mutant, dynE/K (SEQ ID No. 11) (FIG. 13). […] All three mutant proteins had wild-type kinetic properties with respect to the basal and stimulated rate of GTP hydrolysis, indicating proper folding.
# full length dynamin I [1] = molecular target: T1, full length dynamin I (Ovis aries, UniProt A0ACI6NZN1); assay: Basal dynamin GTPase activity in the absence of PS liposomes or other template (ring stabilizer activity); assay type: biochemical, sheep; details: for stimulation of basal dynamin GTPase activity in the presence of Tween-80: dynI 200 nM, Tween-80 0.06%, Bis-T series 10 μM, all other compounds 30 μM, FIG. 11B
# T1 sequence (A0ACI6NZN1 1-864): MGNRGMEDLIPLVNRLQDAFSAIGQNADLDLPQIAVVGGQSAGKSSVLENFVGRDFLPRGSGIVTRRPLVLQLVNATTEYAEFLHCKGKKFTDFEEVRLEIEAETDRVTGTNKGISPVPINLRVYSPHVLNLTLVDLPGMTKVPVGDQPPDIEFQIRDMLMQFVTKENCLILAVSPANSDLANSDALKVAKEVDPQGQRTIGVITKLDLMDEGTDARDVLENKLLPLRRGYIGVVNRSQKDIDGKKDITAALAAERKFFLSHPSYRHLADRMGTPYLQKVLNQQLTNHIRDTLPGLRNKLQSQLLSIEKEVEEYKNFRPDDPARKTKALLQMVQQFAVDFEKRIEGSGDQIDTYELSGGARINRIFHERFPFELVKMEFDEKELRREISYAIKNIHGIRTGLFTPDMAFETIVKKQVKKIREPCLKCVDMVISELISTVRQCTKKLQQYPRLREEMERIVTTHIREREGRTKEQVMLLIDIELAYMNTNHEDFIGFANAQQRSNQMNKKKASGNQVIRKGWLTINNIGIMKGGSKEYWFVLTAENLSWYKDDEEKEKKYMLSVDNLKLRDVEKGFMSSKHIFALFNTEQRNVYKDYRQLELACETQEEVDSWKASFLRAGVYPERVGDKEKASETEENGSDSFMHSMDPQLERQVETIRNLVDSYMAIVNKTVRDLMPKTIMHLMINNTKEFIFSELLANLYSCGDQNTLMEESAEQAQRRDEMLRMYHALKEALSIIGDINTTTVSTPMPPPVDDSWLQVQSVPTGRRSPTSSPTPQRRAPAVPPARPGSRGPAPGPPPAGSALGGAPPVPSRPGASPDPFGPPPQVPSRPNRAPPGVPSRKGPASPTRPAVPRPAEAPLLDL
# Protocol: The compounds were present at the indicated concentrations and the concentration causing half-maximal stimulation is shown as the EC50.
# Dynamin I (50 nM) GTPase stimulation was performed in the absence of the detergent Tween-80 (and in the absence of any known activators such as PS liposomes, nanotubes or microtubules). […] The GTPase activity of dynamin I (dynI; 200 nM) was measured in the absence of lipid activators (and in the presence of standard Tween-80 at 0.06%).
# A compound (whether a dynamin inhibitor or not) can be identified as a dynamin ring stabilizer by assaying for its capacity to promote accumulation of dynamin rings and/or to inhibit disassembly of dynamin rings. […] GTPase activity of dynamin or dynamin rings can be determined by any conventionally known method (e.g., see Quan and Robinson. 2005). Such conditions include: (a) the absence of a helix assembly template such as liposomes, microtubules or lipid nanotubes, and (b) higher concentrations of dynamin than normally required for detecting template stimulated activity, typically 50-500 nM dynamin instead of 1-20 nM. Thus, ring stabilizer activity can be identified by the ability to stimulate the GTPase activity of full length dynamin in the absence of other stimulatory factors (such as PS liposomes, microtubules or nanotubes). Additional defining characteristics are available but are not essential if the first condition has been met. One such additional characteristic of ring stabilizer activity is that the stimulated activity occurs after a lag phase of a few minutes, rather than being an immediate activation in vitro. […] Such conditions typically mean utilising 50-200 nM dynamin in the absence of a template as distinct from higher concentrations where self-assembly is known to occur without the addition of a dynamin ring stabilizer.
# Next, a time course experiment of Bis-T-23 stimulation of dynamin GTPase (FIG. 3) was conducted. […] The lag phase is thought to indicate the time required for dynamin to assemble as rings.
# [2] = test system: truncated dynamin I construct known as GG2; assay: Basal GTPase activity of assembly-incompetent dynamin construct GG2; assay type: biochemical; details: FIG. 5
# Text: FIG. 5 is a graph showing the basal GTPase activity of the truncated dynamin I construct known as GG2, containing only the GTPase domain linked to a small part of the GED domain (Chappie et al 2009). Unlike full length dynamin this construct is known to be unable to self-assemble or to form rings. Bis-T-22 and -23 and imminodyn-22 have no effect on the basal activity of this assembly-incompetent construct.
# To verify that ring stabilizers require dynamin oligomerisation, a recombinant form of dynamin, called GG-2, which is dimeric yet is unable to self-associate into higher order oligomers (Chappie et al 2009) was tested. Ring stabilizers are unable to stimulate the basal activity of such constructs (FIG. 5).
# rat brain synaptosomes = assay: EM analysis of endocytic pits in KCl-depolarised rat brain synaptosomes; assay type: cell-based; details: 30 min (100 μM), depolarised with KCl, FIG. 10B
# Text: When vesicles are endocytosed via the clathrin-dependent pathway, they are well known to be internalised as omega shaped figures close to the plasma membrane with partially constricted and short necks. These can be detected by transmission electron microscopy (EM) at a low frequency. […] In contrast to these observations, a dynamin ring stabilizer causes accumulation of clathrin coated pits in cells with two distinctive features: the vesicle necks are highly elongated and are encircled by electron dense rings. […] No rings or trapped vesicles were detected when the synaptosomes were unstimulated (FIG. 10B top). This mimics the in vitro observations on purified dynamin I described earlier which forms single rings (FIG. 9).
# [3] = test system: Human lymphoblasts (which express dynamin II); assay: EM analysis of clathrin coated pits in human lymphoblasts; assay type: cell-based; details: 30 min (Bis-T-22 100 μM), FIG. 10A
# Text: When vesicles are endocytosed via the clathrin-dependent pathway, they are well known to be internalised as omega shaped figures close to the plasma membrane with partially constricted and short necks. These can be detected by transmission electron microscopy (EM) at a low frequency.
# dynamin I = assay: Dynamin self-assembly assay, high speed centrifugation at decreasing NaCl; assay type: biochemical; details: dynamin 520 nM
# Protocol: This dynamin self-assembly assay was performed with native dynamin ([…]) using the Hepes column buffer described above in Example 1.1, (with the addition of 1% DMSO as described above). Bis-T effects were measured by pre-incubating the dynamin with the indicated Bis-T concentrations for 10 min at room temperature (22° C.). NaCl concentrations were varied from a stock in 200 mM NaCl. After the incubation the tubes were transferred to a TLA120.2 rotor (Beckman) and centrifuged in a tabletop ultracentrifuge (Optima TLX, Beckman) at 100,000 g for 20 min, and the supernatants (S) and pellets (P) were collected, precipitated with trichloracetic acid, solubilised in SDS sample buffer and separated on SDS gels.
# A block in ring disassembly should be manifested as an accumulation of rings in vitro. Dynamin self-assembles into rings in the absence of any cofactors when the buffer ionic strength is decreased (Song et al. 2004). To determine whether Bis-T compounds regulate dynamin-dynamin interactions a well-established method of high speed centrifugation in decreasing amounts of NaCl to collect rings in the pellet (Warnock et al. 1996) was used. Higher concentrations of dynamin (520 nM) and dynamin was visualized by Coomassie staining on SDS gels (FIG. 6). As reported by others, dynamin is in the supernatant at ≧40 mM NaCl, but self-assembled at ≦20 mM NaCl and is found in the pellet. […]
# full length dynamin I [4] = molecular target: T2, full length dynamin I (UniProt Q05193); assay: Basal dynamin GTPase activity in the absence of PS liposomes or other template (ring stabilizer activity); assay type: biochemical, sheep; details: 0.2 μM dyn1, 7 μM compound, 10 μM Gsn-F-actin complexes, FIG. 18
# T2 construct: rows headed: basal rate of GTP hydrolysis of dynamin
# T2 sequence (Q05193 1-864): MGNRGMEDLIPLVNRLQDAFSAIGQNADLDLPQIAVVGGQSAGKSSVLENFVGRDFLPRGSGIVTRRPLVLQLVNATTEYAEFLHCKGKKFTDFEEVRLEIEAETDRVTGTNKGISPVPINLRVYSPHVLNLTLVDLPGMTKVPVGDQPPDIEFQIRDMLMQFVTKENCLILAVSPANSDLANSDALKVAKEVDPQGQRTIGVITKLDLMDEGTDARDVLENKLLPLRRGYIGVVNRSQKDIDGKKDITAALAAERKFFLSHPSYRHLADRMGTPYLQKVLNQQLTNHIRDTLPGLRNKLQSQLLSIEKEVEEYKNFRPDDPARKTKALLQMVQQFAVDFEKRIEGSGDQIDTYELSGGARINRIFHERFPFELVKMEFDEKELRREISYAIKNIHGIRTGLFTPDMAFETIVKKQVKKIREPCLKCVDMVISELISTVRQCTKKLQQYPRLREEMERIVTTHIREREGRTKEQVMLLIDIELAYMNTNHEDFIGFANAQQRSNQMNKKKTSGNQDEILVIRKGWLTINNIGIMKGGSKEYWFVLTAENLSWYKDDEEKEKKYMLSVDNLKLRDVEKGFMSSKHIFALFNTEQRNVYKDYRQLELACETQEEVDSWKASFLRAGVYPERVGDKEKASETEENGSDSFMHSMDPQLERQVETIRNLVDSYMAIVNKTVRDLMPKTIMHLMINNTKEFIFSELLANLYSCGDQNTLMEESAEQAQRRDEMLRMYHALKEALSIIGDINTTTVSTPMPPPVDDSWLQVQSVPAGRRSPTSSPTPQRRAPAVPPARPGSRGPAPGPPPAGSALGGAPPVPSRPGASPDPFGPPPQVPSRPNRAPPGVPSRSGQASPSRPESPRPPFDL
compound,measurement,setting,value
dynE/K: ‘gain of function’ dynamin mutant in the actin binding domain (SEQ ID No. 11) (RTGLFTPDLAFEAIVKKQVVKLKKPCLKCVDLVIQKLISTVRQCTS; listed as Mus musculus),Kd,F-actin,30 nM
"O=C(N/N=C/c1ccc(O)c(O)c1)c1cc2ccccc2cc1O [Dynasore, 3-hydroxynaphthalene-2-carboxylic acid (3,4-dihydroxybenzylidene) hydrazide, reference compound]",stimulation of basal dynamin GTPase activity in the absence of Tween-80,"full length dynamin I [1]; Dynamin I 50 nM, no Tween-80, no activators, FIG. 11A",stimulated basal dynamin GTPase activity to similar extents as Bis-T-23
same,stimulation of basal dynamin GTPase activity in the presence of Tween-80,full length dynamin I [1],failed to stimulate basal GTPase activity
dynK/E: ‘loss of function’ dynamin mutant in the actin binding domain (SEQ ID No. 9) (RTGLFTPDLAFEAIVEEQVVELEEPCLECVDLVIQELISTVRQCTS; listed as Mus musculus),Kd,F-actin,1700 nM
N=c1oc2c(O)c(O)ccc2cc1C(=O)NCCCNC(=O)c1cc2ccc(O)c(O)c2oc1=N [Iminodyn 22],effect on basal GTPase activity of GG2,[2],no effect
"N#C/C(=C\c1ccc(O)c(O)c1)C(=O)NCCCNC(=O)/C(C#N)=C/c1ccc(O)c(O)c1 [Bis-T-22, 2-cyano-N-{3-[2-cyano-3-(3,4-dihydroxyphenyl)-acryloylamino]-propyl}-3-(3,4-dihydroxyphenyl)-acrylamide]",trapped endocytic pits by EM,rat brain synaptosomes,trapped endocytic pits were detected that were encircled by a single electron dense ring
same,clathrin coated pits by EM,[3],massive accumulation in all cells of clathrin coated pits with highly elongated necks
same,dynamin ring assembly (dynamin in pellet),"dynamin I; 100 μM, intermediate salt concentrations",increased ring assembly
same,dynamin ring assembly (dynamin in pellet),"dynamin I; 300 μM, fixed 40 mM NaCl",promoted all dynamin to form rings
same,basal rate of GTP hydrolysis of dynamin,full length dynamin I [4],stimulates dynamin's basal rate of GTP hydrolysis
same,effect on basal GTPase activity of GG2,[2],no effect
dynK/A: ‘loss of function’ dynamin mutant in the actin binding domain (SEQ ID No. 10) (RTGLFTPDLAFEAIVAAQVVALAEPCLACVDLVIQELISTVRQCTS; listed as Mus musculus),Kd,F-actin,2800 nM
O=C(N/N=C/c1cc(O)c(O)cc1O)c1cc2ccccc2cc1O [Dyngo-4a],stimulation of basal dynamin GTPase activity in the presence of Tween-80,full length dynamin I [1],effective
N=c1oc2c(O)cccc2cc1C(=O)NCCCNC(=O)c1cc2cccc(O)c2oc1=N [Iminodyn 20],ring stabilizer activity,"full length dynamin I [1]; absence of PS, Table 2",no ring stabilizer activity
